Laboratory results reported in PubChem BioAssay AID2060599 (Molecular Pharmacology Branch, DTP, NCI, 2025).
Where “and” joins values, the source holds several entries; their conditions need not be identical. Equal values may be shown once.

Tested on: 817829-284-R-J1-PDC complex spheroids, viability
Assay: Anticancer human tumor 817829-284-R-J1-PDC patient-derived colon adenocarcinoma cell line growth inhibition [CLK]
Settings: for viability, T/C: stronger effect = lower value; active means viability on the fitted dose curve at most 10% of control; inactive means the rest
How it was run: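 Multi-cell-type spheroids combined patient-derived tumor cells with HUVEC endothelial cells and human mesenchymal stem cells. Paired agents were dosed in half-log steps down from about clinical Cmax, or from 10 microM where Cmax was unknown.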

[1] = curve of first compound, second compound 0.0316 µM
[2] = curve of first compound, second compound 0.1 µM
[3] = curve of first compound, second compound 0.316 µM
[4] = curve of first compound, second compound 1 µM
[5] = curve of first compound, second compound 3.16 µM
[6] = curve of first compound, second compound 10 µM
[7] = second compound 0.0316 µM, first compound 0.0316 µM
[8] = second compound 0.0316 µM, first compound 0.1 µM
[9] = second compound 0.0316 µM, first compound 0.316 µM
[10] = second compound 0.0316 µM, first compound 1 µM
[11] = second compound 0.0316 µM, first compound 3.16 µM
[12] = second compound 0.0316 µM, first compound 10 µM
[13] = second compound 0.1 µM, first compound 0.0316 µM
[14] = second compound 0.1 µM, first compound 0.1 µM
[15] = second compound 0.1 µM, first compound 0.316 µM
[16] = second compound 0.1 µM, first compound 1 µM
[17] = second compound 0.1 µM, first compound 3.16 µM
[18] = second compound 0.1 µM, first compound 10 µM
[19] = second compound 0.316 µM, first compound 0.0316 µM
[20] = second compound 0.316 µM, first compound 0.1 µM
[21] = second compound 0.316 µM, first compound 0.316 µM
[22] = second compound 0.316 µM, first compound 1 µM
[23] = second compound 0.316 µM, first compound 3.16 µM
[24] = second compound 0.316 µM, first compound 10 µM
[25] = second compound 1 µM, first compound 0.0316 µM
[26] = second compound 1 µM, first compound 0.1 µM
[27] = second compound 1 µM, first compound 0.316 µM
[28] = second compound 1 µM, first compound 1 µM
[29] = second compound 1 µM, first compound 3.16 µM
[30] = second compound 1 µM, first compound 10 µM
[31] = second compound 3.16 µM, first compound 0.0316 µM
[32] = second compound 3.16 µM, first compound 0.1 µM
[33] = second compound 3.16 µM, first compound 0.316 µM
[34] = second compound 3.16 µM, first compound 1 µM
[35] = second compound 3.16 µM, first compound 3.16 µM
[36] = second compound 3.16 µM, first compound 10 µM
[37] = second compound 10 µM, first compound 0.0316 µM
[38] = second compound 10 µM, first compound 0.1 µM
[39] = second compound 10 µM, first compound 0.316 µM
[40] = second compound 10 µM, first compound 1 µM
[41] = second compound 10 µM, first compound 3.16 µM
[42] = second compound 10 µM, first compound 10 µM
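Further: spheroids exposed to the agents for seven days before readout.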

O=C(c1cc(Cc2n[nH]c(=O)c3ccccc23)ccc1F)N1CCN(C(=O)C2CC2)CC1 + CN1CCN(c2cc(C(=O)Nc3cc4cc(-c5cnn(C)c5)ccc4cn3)ccn2)CC1
inactive: viability, T/C [7] 49.4% | viability, T/C [8] 44.3% | viability, T/C [9] 46.2% | viability, T/C [10] 45.6% | viability, T/C [11] 36.7% | viability, T/C [12] 26.6% | viability, T/C [13] 15.5% | viability, T/C [14] 19.8% | viability, T/C [15] 18.6% | viability, T/C [16] 20.7% | viability, T/C [17] 17.8% | viability, T/C [18] 18.6%
active: viability, T/C [19] 1.83% | viability, T/C [20] 1.77% | viability, T/C [21] 2.03% | viability, T/C [22] 1.63% | viability, T/C [23] 1.4% | viability, T/C [24] 1.54% | viability, T/C [25] 0.12% | viability, T/C [26] 0.1% | viability, T/C [27] 0.12% | viability, T/C [28] 0.09% | viability, T/C [29] 0.12% | viability, T/C [30] 0.09% | viability, T/C [31] 0.2% | viability, T/C [32] 0.18% | viability, T/C [33] 0.17% | viability, T/C [34] 0.16% | viability, T/C [35] 0.23% | viability, T/C [36] 0.22% | viability, T/C [37] 0.06% | viability, T/C [38] 0.08% | viability, T/C [39] 0.15% | viability, T/C [40] 0.09% | viability, T/C [41] 0.18% | viability, T/C [42] 0.15%
< 31.6 nM: IC50 [1] | IC50 [2] | IC50 [3] | IC50 [4] | IC50 [5] | IC50 [6]

C=CC(=O)N1CCN(c2nc(=O)n(-c3c(C)ccnc3C(C)C)c3nc(-c4c(O)cccc4F)c(F)cc23)C(C)C1 (stereo not given)
inactive: viability, T/C (compound 0.0316 µM) 101% and 136% | viability, T/C (compound 0.1 µM) 97.2% and 101% | viability, T/C (compound 0.316 µM) 101% and 92.9% | viability, T/C (compound 1 µM) 100% | viability, T/C (compound 3.16 µM) 101% | viability, T/C (compound 10 µM) 57% and 87.9%
> 10000 nM: IC50 (curve of compound)

O=c1[nH]cc(F)c(=O)[nH]1
5960 nM and 898 nM: IC50 (curve of compound)
inactive: viability, T/C (compound 0.0316 µM) 66% and 85.8% | viability, T/C (compound 0.1 µM) 74.9% and 79.8% | viability, T/C (compound 0.316 µM) 98.9% and 85% | viability, T/C (compound 1 µM) 67.1% and 46.5% | viability, T/C (compound 3.16 µM) 63.9% and 53.2% | viability, T/C (compound 10 µM) 39.6% and 38%

C=C(F)C(=O)N1CCN(c2nc(OCC3CCCN3C)nc3c2CCN(c2cccc4cccc(Cl)c24)C3)CC1CC#N (stereo not given) + CNC(=O)c1ccc(Nc2nc(OC3CCCC3)c3c(-c4ccc5nc(C)oc5c4)c[nH]c3n2)c(OC)c1
inactive: viability, T/C [7] 19.9% | viability, T/C [8] 42.3% | viability, T/C [9] 23.4% | viability, T/C [10] 23.3% | viability, T/C [11] 17.6% | viability, T/C [13] 34.9% | viability, T/C [14] 23% | viability, T/C [15] 26.5% | viability, T/C [16] 23.6% | viability, T/C [17] 16.1% | viability, T/C [19] 25.3% | viability, T/C [20] 25.3% | viability, T/C [21] 22.7% | viability, T/C [22] 24.5% | viability, T/C [23] 10.8% | viability, T/C [25] 22.4% | viability, T/C [26] 24.6% | viability, T/C [27] 28% | viability, T/C [28] 24.4% | viability, T/C [29] 5.74% | viability, T/C [31] 20.7% | viability, T/C [32] 26.8% | viability, T/C [33] 22.5% | viability, T/C [34] 21% | viability, T/C [37] 21.7% | viability, T/C [38] 14.1% | viability, T/C [39] 20.6% | viability, T/C [40] 28.5%
< 31.6 nM: IC50 [1] | IC50 [2] | IC50 [3] | IC50 [4] | IC50 [5] | IC50 [6]
active: viability, T/C [12] 0.08% | viability, T/C [18] 0.15% | viability, T/C [24] 0.08% | viability, T/C [30] 0.07% | viability, T/C [35] 3.26% | viability, T/C [36] 0.18% | viability, T/C [41] 3.94% | viability, T/C [42] 0.22%

COC1C=CCC(C)C(C)S(=O)(=O)NC(=O)c2ccc3c(c2)N(CC2CCC21)CC1(CCCc2cc(Cl)ccc21)CO3 (stereo not given)
8.51% and 6.66%: viability, T/C (compound 10 µM)
4090 nM and 5030 nM: IC50 (curve of compound)
inactive: viability, T/C (compound 0.0316 µM) 125% and 85.6% | viability, T/C (compound 0.1 µM) 98.4% and 97.6% | viability, T/C (compound 0.316 µM) 90.7% and 66.9% | viability, T/C (compound 1 µM) 91.7% and 93.4% | viability, T/C (compound 3.16 µM) 65.8% and 79%

COc1cccc2c1C(=O)c1c(O)c3c(c(O)c1C2=O)CC(O)(C(=O)CO)CC3OC1CC(N)C(O)C(C)O1 (stereo not given)
inactive: viability, T/C (compound 0.0316 µM) 20.5% | viability, T/C (compound 0.1 µM) 16.4%
< 31.6 nM: IC50 (curve of compound)
active: viability, T/C (compound 0.316 µM) 4.21% | viability, T/C (compound 1 µM) 0.22% | viability, T/C (compound 3.16 µM) 0.3% | viability, T/C (compound 10 µM) 0.85%

CC1(C)CCC(CN2CCN(c3ccc(C(=O)NS(=O)(=O)c4ccc(NCC5CCOCC5)c([N+](=O)[O-])c4)c(Oc4cnc5[nH]ccc5c4)c3)CC2)=C(c2ccc(Cl)cc2)C1
4310 nM: IC50 (curve of compound)
inactive: viability, T/C (compound 0.0316 µM) 103% | viability, T/C (compound 0.1 µM) 85.1% | viability, T/C (compound 0.316 µM) 98.6% | viability, T/C (compound 1 µM) 63.7% | viability, T/C (compound 3.16 µM) 77.5%
active: viability, T/C (compound 10 µM) 2.29%

C=C(F)C(=O)N1CCN(c2nc(OCC3CCCN3C)nc3c2CCN(c2cccc4cccc(Cl)c24)C3)CC1CC#N (stereo not given)
inactive: viability, T/C (compound 0.0316 µM) 99.4% and 105% | viability, T/C (compound 0.1 µM) 73% and 144% | viability, T/C (compound 0.316 µM) 141% and 96.3% | viability, T/C (compound 1 µM) 77.1% and 84.6% | viability, T/C (compound 3.16 µM) 20.8% and 21.4%
1770 nM and 1850 nM: IC50 (curve of compound)
active: viability, T/C (compound 10 µM) 0.08% and 0.14%

C#Cc1c(F)ccc2cc(O)cc(-c3ncc4c(N5CC6CCC(C5)N6)nc(OCC56CCCN5CC(F)C6)nc4c3F)c12 (stereo not given) + CN1CCN(c2cc(C(=O)Nc3cc4cc(-c5cnn(C)c5)ccc4cn3)ccn2)CC1
active: viability, T/C [19] 2.71% | viability, T/C [20] 2.39% | viability, T/C [21] 2.14% | viability, T/C [22] 2.39% | viability, T/C [23] 2.31% | viability, T/C [24] 1.5% | viability, T/C [25] 0.1% | viability, T/C [26] 0.14% | viability, T/C [27] 0.17% | viability, T/C [28] 0.12% | viability, T/C [29] 0.09% | viability, T/C [30] 0.09% | viability, T/C [31] 0.15% | viability, T/C [32] 0.13% | viability, T/C [33] 0.15% | viability, T/C [34] 0.16% | viability, T/C [35] 0.13% | viability, T/C [36] 0.07% | viability, T/C [37] 0.1% | viability, T/C [38] 0.11% | viability, T/C [39] 0.11% | viability, T/C [40] 0.16% | viability, T/C [41] 0.17% | viability, T/C [42] 0.13%
inactive: viability, T/C [7] 83.1% | viability, T/C [8] 61% | viability, T/C [9] 66.3% | viability, T/C [10] 68.5% | viability, T/C [11] 57.3% | viability, T/C [12] 40.5% | viability, T/C [13] 24.2% | viability, T/C [14] 19.4% | viability, T/C [15] 19.8% | viability, T/C [16] 17.4% | viability, T/C [17] 15.2% | viability, T/C [18] 11.8%
4960 nM: IC50 [1]
< 31.6 nM: IC50 [2] | IC50 [3] | IC50 [4] | IC50 [5] | IC50 [6]

C=CC(=O)N1CCN(c2nc(=O)n(-c3c(C)ccnc3C(C)C)c3nc(-c4c(O)cccc4F)c(F)cc23)C(C)C1 (stereo not given) + CNC(=O)c1ccc(Nc2nc(OC3CCCC3)c3c(-c4ccc5nc(C)oc5c4)c[nH]c3n2)c(OC)c1
< 31.6 nM: IC50 [1] | IC50 [2] | IC50 [3] | IC50 [4] | IC50 [5] | IC50 [6]
inactive: viability, T/C [7] 35.9% | viability, T/C [8] 44.3% | viability, T/C [9] 34.6% | viability, T/C [10] 24.2% | viability, T/C [11] 25.9% | viability, T/C [12] 15% | viability, T/C [13] 30.9% | viability, T/C [14] 22.7% | viability, T/C [15] 30.4% | viability, T/C [16] 25.1% | viability, T/C [17] 22.2% | viability, T/C [18] 22.9% | viability, T/C [19] 28.8% | viability, T/C [20] 35.2% | viability, T/C [21] 30.8% | viability, T/C [22] 22.8% | viability, T/C [23] 31.2% | viability, T/C [24] 17.4% | viability, T/C [25] 22.3% | viability, T/C [26] 20.8% | viability, T/C [27] 18.2% | viability, T/C [28] 19.8% | viability, T/C [29] 20% | viability, T/C [30] 12.4% | viability, T/C [31] 22.4% | viability, T/C [32] 25.8% | viability, T/C [33] 15.9% | viability, T/C [34] 22.2% | viability, T/C [35] 23.5% | viability, T/C [36] 10.6% | viability, T/C [37] 27.2% | viability, T/C [38] 23.3% | viability, T/C [39] 22% | viability, T/C [40] 27.3% | viability, T/C [41] 19.1% | viability, T/C [42] 12%
